Systemic availability data for one compound are collected here from patent publication US20220274973A1, “Methods And Compositions For Treating Sickle Cell Disease With A Ferroportin Inhibitor (VIT-2763)” (Vifor (International) AG, priority 2019, published 2022).

A short description of the data set: Rodent PK studies, oral dosing. The class given is in vivo.

As to `O=C(NCc1ncccc1F)c1coc(CCNCCc2nc3ccccc3[nH]2)n1` [Compound 127], the systemic availability entry was “systemically available”.
